Laboratory results reported in article PMC6511888, “Synthesis, Biological Evaluation, and Molecular Modeling Studies of New Thiadiazole Derivatives as Potent P2X7 Receptor Inhibitors” (Frontiers in Chemistry, 2019).
Read-outs that look alike come from different tables or passages of the source.

Legend:
P2X7R = target: T1, P2X7R (Mus musculus, UniProt Q9Z1M0); assay: Dye uptake assay (propidium iodide) in mouse peritoneal macrophages; assay type: cell-based; conditions: mean ± SD; for inhibition at 10 µM: percentage relative to the maximum uptake of propidium stimulated by 1 mM ATP only; for IC50: propidium uptake assay, mice peritoneal macrophages
T1 construct: plated for 24 h before dye uptake assays, whole-cell patch clamp experiments, and IL-1β release assays; endogenous in cells; host or cells: mouse (Swiss Webster) peritoneal macrophages
T1 sequence (Q9Z1M0 1-595): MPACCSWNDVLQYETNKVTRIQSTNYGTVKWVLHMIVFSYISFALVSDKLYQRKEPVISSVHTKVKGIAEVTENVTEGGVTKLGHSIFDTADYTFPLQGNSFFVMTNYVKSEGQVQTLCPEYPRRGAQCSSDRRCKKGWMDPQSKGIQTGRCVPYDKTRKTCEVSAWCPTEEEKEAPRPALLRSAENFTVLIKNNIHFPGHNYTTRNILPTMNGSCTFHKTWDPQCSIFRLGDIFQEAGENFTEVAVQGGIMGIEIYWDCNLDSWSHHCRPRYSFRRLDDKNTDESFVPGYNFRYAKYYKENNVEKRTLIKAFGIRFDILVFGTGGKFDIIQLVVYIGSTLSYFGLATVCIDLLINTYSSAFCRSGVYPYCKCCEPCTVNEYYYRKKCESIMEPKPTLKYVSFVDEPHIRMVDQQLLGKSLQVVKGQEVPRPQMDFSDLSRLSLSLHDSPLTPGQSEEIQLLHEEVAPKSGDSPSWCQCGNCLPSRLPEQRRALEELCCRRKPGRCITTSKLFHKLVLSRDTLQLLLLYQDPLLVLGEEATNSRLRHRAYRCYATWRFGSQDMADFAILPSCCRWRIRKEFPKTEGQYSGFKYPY
Procedure: Our protocols adhered to the Ethical Principles in Animal Experimentation adopted by the Brazilian College of Animal Experimentation and approved by the FIOCRUZ Research Ethics Committee (Faria et al., [2005]; number L039- 2016). Male mouse (Swiss Webster) peritoneal macrophages were collected from peritoneal cavity lavage and plated for 24 h before dye uptake assays, whole-cell patch clamp experiments, and IL-1β release assays.
(§1) HEK-293 cells transfected with hP2X7R and mouse peritoneal macrophages were plated at 2.5 × 10^6 or 5 × 10^5 cells/ml, respectively, in 96-well culture plates containing DMEM with 10% FBS and anti-biotics (50 U/ml penicillin and […] streptomycin) in a humidified 5% CO2 atmosphere at 37°C for 24 h (Faria et al., [2018]).
[…] In the last 5 min of ATP incubation, propidium iodide for macrophages (PI; 750 nM) or ethidium bromide (EB; 25 μM) for HEK-293 cells was added to all wells. PI dye was excited at a wavelength of 530 nm, and its fluorescence emission was read at a wavelength of 590 nm using an M5 plate reader (Molecular Devices). EB dye was excited at a wavelength of 530 nm and emitted at a wavelength of 620 nm.

human P2X7R = target: T2, human P2X7R (Homo sapiens, UniProt Q99572); assay: Dye uptake assay (ethidium bromide) in HEK-293 cells transfected with hP2X7R; assay type: cell-based; conditions: for IC50: ethidium uptake assay, HEK-293 cells transfected with human P2X7R, mean ± SD
T2 construct: expressed in transfected cells; host or cells: HEK-293
T2 sequence (Q99572 1-595): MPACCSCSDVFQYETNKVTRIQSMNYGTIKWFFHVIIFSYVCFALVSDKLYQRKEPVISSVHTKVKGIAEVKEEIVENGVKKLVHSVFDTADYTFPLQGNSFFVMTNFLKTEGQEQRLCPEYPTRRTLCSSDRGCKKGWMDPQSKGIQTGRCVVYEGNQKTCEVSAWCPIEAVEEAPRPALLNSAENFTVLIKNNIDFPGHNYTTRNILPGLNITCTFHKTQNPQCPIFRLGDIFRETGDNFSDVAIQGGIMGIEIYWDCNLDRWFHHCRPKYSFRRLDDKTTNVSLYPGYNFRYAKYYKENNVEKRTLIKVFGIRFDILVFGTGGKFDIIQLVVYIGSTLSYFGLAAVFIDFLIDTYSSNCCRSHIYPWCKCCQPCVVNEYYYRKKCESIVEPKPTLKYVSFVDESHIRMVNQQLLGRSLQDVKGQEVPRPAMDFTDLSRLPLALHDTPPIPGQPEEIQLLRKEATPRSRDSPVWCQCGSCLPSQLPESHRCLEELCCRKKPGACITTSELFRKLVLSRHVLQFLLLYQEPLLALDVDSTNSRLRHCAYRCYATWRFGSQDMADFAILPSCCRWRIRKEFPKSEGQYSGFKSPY
Procedure: HEK-293 cells expressing human P2X7R were maintained in Dulbecco's modified Eagle's medium (DMEM; Sigma-Aldrich) supplemented with 10% fetal bovine serum (FBS; Prolab, Br) and anti-biotics (50 U/ml penicillin and […] streptomycin) in a humidified 5% CO2 atmosphere at 37°C (Faria et al., [2018]). A total of 5 × 10^5 cells were plated at 37°C in a humidified 5% CO2 atmosphere for 24 h in a 96-well plate for dye uptake or IL-1β release assays.
as §1
P2X7R antagonist and thiadiazole analogs (1 nM to 0.5 mM) were incubated for 5 min before ATP (5 mM) treatment for 20 min. In the last 5 min of ATP incubation, propidium iodide for macrophages (PI; 750 nM) or ethidium bromide (EB; 25 μM) for HEK-293 cells was added to all wells. PI dye was excited at a wavelength of 530 nm, and its fluorescence emission was read at a wavelength of 590 nm using an M5 plate reader (Molecular Devices). EB dye was excited at a wavelength of 530 nm and emitted at a wavelength of 620 nm.

[1] = test system: mouse peritoneal macrophages; assay: LDH release assay (toxicity); assay type: cell-based; conditions: 10 μM; relative to maximum LDH release caused by 0.05% Triton X-100; cell type not given; mean ± SD
Procedure: (§2) Mouse peritoneal macrophages (5 × 10^5 cells) and HEK-293 cells transfected with P2X7R (5 × 10^5 cells) were plated in a 96-well-plate for 24 h before the treatment. […] The supernatant collected in this assay was used to measure the presence of LDH in the media using a cytotoxicity detection kit (Sigma kit for LDH) according to the manufacturer's instructions (Faria et al., [2018]).

[2] = LDH release assay (toxicity); assay type: cell-based, mouse; conditions: mouse peritoneal macrophages; for IC50 at 24 h: read-out: Macrophages IC50 (toxic effect); for CC50 at 24 h: mouse, peritoneal macrophages, toxicity measured for 24 h
Procedure: as §2

[3] = test system: P2X7R-mediated IL-1β release; assay: ATP-induced IL-1β release (ELISA) in differentiated THP-1 cells; assay type: cell-based, human
Procedure: P2X7R-mediated IL-1β release was obtained from differentiated THP-1 cells stimulated with lipopolysaccharide (LPS) before ATP addition. […] THP-1 cells were differentiated with 500 ng/ml phorbol 12-myristate 13-acetate (PMA) and 10 ng/ml IFN-γ cotreatment for 24 h. These cells were activated with 25 ng/ml LPS for 4 h. […] P2X7R antagonists (BBG and A740003) and thiadiazole analogs were added 30 min before the ATP stimulus. The supernatants were collected, centrifuged (1,000 rpm for 5 min at 4°C), and stored at −70°C after LPS incubation. IL-1β was quantified using a standard kit (ABCAM, Cambridge).

[4] = ATP-induced IL-1β release, LPS/IFN-differentiated human THP-1 cells, read-out: THP-1 cells IC50
[5] = dye uptake, HEK-293-transfected cells

Work on `N#Cc1cnn(-c2nnc(-c3ccccc3Cl)s2)c1N` [Compound 9b] yielded an inhibition at 10 µM (P2X7R) of 30 ± 0.6%, an IC50 (P2X7R) of 0.111 ± 0.009 µM and an IC50 (human P2X7R) of 0.041 ± 0.008 µM. The “% LDH release” value [1] was 15.8 ± 1.3%, the IC50 at 24 h [2] was 2270 ± 86 µM and the CC50 at 24 h [2] was 2270 µM. For the same molecule, the IC50 [3, 4] was 0.298 ± 0.008 µM and the “Potency relative to BBG (times more potent)” value ([3]; IL-1β release, THP-1 cells) was “approximately 10 times”.

Molecule `N#Cc1cnn(-c2nnc(-c3ccc(F)cc3)s2)c1N` [Compound 9c] has an inhibition at 10 µM (P2X7R) of 28.2 ± 0.7%, an IC50 (P2X7R) of 0.109 ± 0.011 µM and an IC50 (human P2X7R) of 0.056 ± 0.002 µM. For the same molecule, the “% LDH release” value [1] was 10 ± 0.7%, the IC50 at 24 h [2] was 3900 ± 77 µM and the CC50 at 24 h [2] was 6080 µM. For the same molecule, the IC50 [3, 4] was 0.279 ± 0.035 µM and the “Potency relative to BBG (times more potent)” value ([3]; IL-1β release, THP-1 cells) was “approximately 10 times”.

For `CCOC(=O)c1cnn(-c2nnc(-c3ccccc3Cl)s2)c1N` [Compound 9f], the inhibition at 10 µM (P2X7R) was 15.7 ± 0.6%, the IC50 (P2X7R) was 0.016 ± 0.002 µM and the “Potency relative to A740003 (times greater)” value (human P2X7R; [5]) was “eight”. For the same molecule, the “Potency relative to BBG (times greater)” value (human P2X7R; [5]) was “more than 50 times”, the IC50 (human P2X7R) was 0.011 ± 0.001 µM and the “% LDH release” value [1] was 42.5 ± 0.4%. It also gave an IC50 at 24 h [2] of 6080 ± 102 µM, a CC50 at 24 h [2] of 3900 µM and an IC50 [3, 4] of 0.019 ± 0.003 µM. For the same molecule, the IC50 ([3]; Homo sapiens, THP-1 cells, read-out: IC50, IL-1β release) was 0.02 to 0.3 µM, the “Potency relative to A740003” value ([3]; IL-1β release, THP-1 cells) was over 10 times and the “Potency relative to BBG (times more potent)” value ([3]; IL-1β release, THP-1 cells) was “more than 20 times”.

`Cc1cc(C)n(-c2nnc(-c3ccc(F)cc3)s2)n1` [Compound 11c, 2-(3,5-dimethyl-1H-pyrazol-1-yl)-5-(4-fluorophenyl)-1,3,4-thiadiazole] showed an inhibition at 10 µM (P2X7R) of 29.2 ± 0.3%, an IC50 (P2X7R) of 0.122 ± 0.013 µM and an IC50 (human P2X7R) of 0.082 ± 0.005 µM. For the same molecule, the “% LDH release” value [1] was 24 ± 1.7%, the IC50 at 24 h [2] was 3240 ± 201 µM and the CC50 at 24 h [2] was 3240 µM. The IC50 [3, 4] was 0.24 ± 0.017 µM and the “Potency relative to BBG (times more potent)” value ([3]; IL-1β release, THP-1 cells) was “approximately 10 times”.

With `COc1ccc(CC(=O)NC(NC(=NC#N)Nc2cccc3ncccc23)C(C)(C)C)cc1OC` (stereo not shown) [Compound A740003, N-(1-{[(cyanoimino)(5-quinolinylamino)methyl]amino}-2,2-dimethylpropyl)-2-(3,4-dimethoxyphenyl)acetamide] the IC50 (P2X7R) was 0.108 ± 0.016 µM, the IC50 (human P2X7R) was 0.097 ± 0.018 µM and the IC50 at 24 h [2] was 325 ± 6 µM. For the same molecule, the IC50 [3, 4] was 0.223 ± 0.018 µM.
